# Results published in PubChem BioAssay (NCI).
# Where “and” joins values, the source holds several entries; their conditions need not be identical. Equal entries are not always repeated.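 These data come from cells grown in 96-well plates and exposed to compound for 48 hours at five concentrations. Abbreviation: GI50, concentration required for 50% inhibition of growth. The concentration for full growth arrest is given as TGI.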
# How the values were obtained:
# Assay in all cases: NCI-60 cell line screen, 48 h
# ACHN renal = test system: ACHN renal
# LOX IMVI melanoma = test system: LOX IMVI melanoma
# SF-268 CNS = test system: SF-268 CNS
# MDA-MB-435 = test system: MDA-MB-435
# NCI/ADR-RES ovarian = test system: NCI/ADR-RES ovarian
# MDA-MB-231 breast = test system: MDA-MB-231 breast
# SN12C renal = test system: SN12C renal
# OVCAR-4 ovarian = test system: OVCAR-4 ovarian
# OVCAR-5 ovarian = test system: OVCAR-5 ovarian
# MOLT-4 leukemia = test system: MOLT-4 leukemia
# A498 renal = test system: A498 renal
# NCI-H23 lung = test system: NCI-H23 lung
# IGROV1 ovarian = test system: IGROV1 ovarian
# OVCAR-8 ovarian = test system: OVCAR-8 ovarian
# HS 578T breast = test system: HS 578T breast
# HOP-62 NSCLC = test system: HOP-62 NSCLC
# TK-10 renal = test system: TK-10 renal
# KM12 colon = test system: KM12 colon
# SK-MEL-2 melanoma = test system: SK-MEL-2 melanoma
# HCT-15 colon = test system: HCT-15 colon
# UO-31 renal = test system: UO-31 renal
# SF-295 CNS = test system: SF-295 CNS
# CCRF-CEM leukemia = test system: CCRF-CEM leukemia
# BT-549 breast = test system: BT-549 breast
# SK-MEL-5 melanoma = test system: SK-MEL-5 melanoma
# SNB-19 CNS = test system: SNB-19 CNS
# HCC-2998 colon = test system: HCC-2998 colon
# HT29 colon = test system: HT29 colon
# T-47D breast = test system: T-47D breast
# HCT-116 colon = test system: HCT-116 colon
# MCF7 breast = test system: MCF7 breast
# SW-620 colon = test system: SW-620 colon
# UACC-62 melanoma = test system: UACC-62 melanoma
# DU-145 prostate = test system: DU-145 prostate
# NCI-H460 lung = test system: NCI-H460 lung
# M14 melanoma = test system: M14 melanoma
# PC-3 prostate = test system: PC-3 prostate
# MALME-3M melanoma = test system: MALME-3M melanoma
# SK-MEL-28 melanoma = test system: SK-MEL-28 melanoma
# SK-OV-3 ovarian = test system: SK-OV-3 ovarian
# COLO 205 colon = test system: COLO 205 colon
# U251 CNS = test system: U251 CNS
# HOP-92 NSCLC = test system: HOP-92 NSCLC
# RXF 393 renal = test system: RXF 393 renal
# SF-539 CNS = test system: SF-539 CNS
# OVCAR-3 ovarian = test system: OVCAR-3 ovarian
# UACC-257 melanoma = test system: UACC-257 melanoma
# RPMI-8226 leukemia = test system: RPMI-8226 leukemia
# NCI-H522 lung = test system: NCI-H522 lung
# EKVX NSCLC = test system: EKVX NSCLC
# NCI-H226 lung = test system: NCI-H226 lung
# K-562 leukemia = test system: K-562 leukemia
# SNB-75 CNS = test system: SNB-75 CNS
# 786-0 renal = test system: 786-0 renal
# CAKI-1 renal = test system: CAKI-1 renal
# SR leukemia = test system: SR leukemia
# A549 NSCLC = test system: A549 NSCLC
compound,measurement,setting,value
c1ccc2c(Nc3ccc(Oc4ccc(Nc5c6ccccc6nc6ccccc56)cc4)cc3)c3ccccc3nc2c1,GI50,ACHN renal,30.9 nM and 133 nM
same,TGI,ACHN renal,101 nM and 260 nM
same,GI50,LOX IMVI melanoma,14.8 nM
same,GI50,SF-268 CNS,758 nM
same,TGI,SF-268 CNS,2810 nM and 4880 nM
same,TGI,MDA-MB-435,400 nM
same,TGI,NCI/ADR-RES ovarian,156 nM
same,GI50,MDA-MB-231 breast,197 nM and 139 nM
same,TGI,MDA-MB-231 breast,566 nM and 268 nM
same,GI50,SN12C renal,213 nM and 375 nM
same,TGI,SN12C renal,651 nM and 1690 nM
same,GI50,OVCAR-4 ovarian,278 nM
same,TGI,OVCAR-4 ovarian,637 nM and 145 nM
same,TGI,OVCAR-5 ovarian,1060 nM
same,GI50,MOLT-4 leukemia,186 nM
same,TGI,MOLT-4 leukemia,843 nM
same,TGI,A498 renal,3850 nM
same,TGI,NCI-H23 lung,596 nM
same,GI50,IGROV1 ovarian,292 nM and 1160 nM
same,TGI,IGROV1 ovarian,1210 nM and 2640 nM
same,TGI,OVCAR-8 ovarian,526 nM
same,TGI,HS 578T breast,5040 nM
same,GI50,HOP-62 NSCLC,301 nM and 1740 nM
same,TGI,HOP-62 NSCLC,1090 nM and 3120 nM
same,TGI,TK-10 renal,970 nM
same,GI50,KM12 colon,210 nM and 187 nM
same,TGI,KM12 colon,441 nM and 376 nM
same,GI50,SK-MEL-2 melanoma,3250 nM
same,TGI,SK-MEL-2 melanoma,3780 nM
same,GI50,HCT-15 colon,19 nM and 17 nM
same,TGI,HCT-15 colon,35.8 nM and 37.9 nM
same,GI50,UO-31 renal,1370 nM and 1190 nM
same,TGI,UO-31 renal,2660 nM and 2600 nM
same,TGI,SF-295 CNS,829 nM
same,GI50,CCRF-CEM leukemia,217 nM
same,TGI,CCRF-CEM leukemia,719 nM
same,GI50,BT-549 breast,2070 nM and 1870 nM
same,TGI,BT-549 breast,4540 nM and 4400 nM
same,TGI,SK-MEL-5 melanoma,3400 nM
same,GI50,SNB-19 CNS,333 nM
same,TGI,SNB-19 CNS,1110 nM
same,TGI,HCC-2998 colon,15.5 nM
same,GI50,HT29 colon,237 nM and 212 nM
same,TGI,HT29 colon,569 nM and 496 nM
same,GI50,T-47D breast,221 nM
same,TGI,T-47D breast,510 nM and 2740 nM
same,GI50,HCT-116 colon,155 nM and 32.5 nM
same,TGI,HCT-116 colon,289 nM and 117 nM
same,GI50,MCF7 breast,176 nM
same,TGI,SW-620 colon,552 nM
same,GI50,UACC-62 melanoma,1540 nM and 182 nM
same,TGI,UACC-62 melanoma,3020 nM and 360 nM
same,GI50,DU-145 prostate,403 nM
same,TGI,DU-145 prostate,1250 nM and 929 nM
same,GI50,NCI-H460 lung,346 nM
same,TGI,NCI-H460 lung,1380 nM and 5930 nM
same,TGI,M14 melanoma,1050 nM
same,TGI,PC-3 prostate,366 nM
same,GI50,MALME-3M melanoma,2080 nM
same,TGI,MALME-3M melanoma,3020 nM and 3820 nM
same,GI50,SK-MEL-28 melanoma,1440 nM
same,TGI,SK-OV-3 ovarian,4210 nM
same,GI50,COLO 205 colon,1520 nM
same,TGI,COLO 205 colon,3650 nM and 2450 nM
same,GI50,U251 CNS,21.2 nM and 145 nM
same,TGI,U251 CNS,76.2 nM and 276 nM
same,GI50,HOP-92 NSCLC,285 nM
same,TGI,HOP-92 NSCLC,1500 nM and 4690 nM
same,GI50,RXF 393 renal,1560 nM
same,TGI,RXF 393 renal,3870 nM and > 27200 nM
same,GI50,SF-539 CNS,2100 nM and 1650 nM
same,TGI,SF-539 CNS,3910 nM and 3320 nM
same,TGI,OVCAR-3 ovarian,366 nM
same,GI50,UACC-257 melanoma,1730 nM and 245 nM
same,TGI,UACC-257 melanoma,3200 nM and 524 nM
same,GI50,RPMI-8226 leukemia,187 nM
same,TGI,RPMI-8226 leukemia,434 nM
same,GI50,NCI-H522 lung,205 nM
same,TGI,NCI-H522 lung,1970 nM and 440 nM
same,GI50,EKVX NSCLC,2500 nM
same,TGI,EKVX NSCLC,5170 nM and 4630 nM
same,TGI,NCI-H226 lung,3810 nM
same,GI50,K-562 leukemia,320 nM
same,TGI,K-562 leukemia,1080 nM
same,GI50,SNB-75 CNS,1590 nM
same,TGI,SNB-75 CNS,3980 nM and 1450 nM
same,TGI,786-0 renal,30.5 nM
same,GI50,CAKI-1 renal,1820 nM
same,TGI,CAKI-1 renal,3220 nM and 3010 nM
same,GI50,SR leukemia,126 nM
same,TGI,SR leukemia,323 nM
same,GI50,A549 NSCLC,265 nM and 227 nM
same,TGI,A549 NSCLC,792 nM and 540 nM
